Measurements as given in patent US20260224714A1, “CYCLING LYSOSOMAL TARGETING ANTIBODY CONJUGATES” (Lycia Therapeutics, Inc., priority 2023, published 2026).

What was measured:
Assay type in all cases: cell-based
[1] = system: Alexa Fluor647 labelled human IgE; experiment: Uptake assay: internalization of Alexa Fluor 647 labelled IgE in wild type HepG2 cells (Example 6); conditions: equimolar conjugate and AF647 IgE, 2 hours, median cellular AF647 intensity by flow cytometry, normalized to unconjugated parent protein
Procedure: (§1) The following experiments were performed with HepG2 hepatocellular carcinoma cells, grown in Eagle's Minimal Essential Media (EMEM) supplemented with 10% FBS and penicillin/streptomycin.
(§2) HepG2 cells (25,000) were plated in 96-well plates 48 hours before the experiment was performed. On the day of the experiment, indicated the conjugate was mixed with an equimolar stock of Alexa Fluor647 labelled human IgE (Enzo Life Sciences, BPD-DIA-HE 1) in fresh EMEM as a 600 nM stock. The precomplexed conjugate:IgE mixture was incubated at room temperature for 30 minutes. During the precomplexing step, media from HepG2 was removed, and 40 ul of EMEM with 1/100 Fc Receptor Blocking Solution (Biolegend Human TruStain FcX, 422302) was added. Cells incubated in the receptor blocking solution for 10 minutes while making serial dilutions (1:3) of conjugate:IgE stock solution in EMEM. 40 ul of the conjugate:IgE mixture in EMEM was then added to cells (six dilutions, with final concentrations ranging from 300 nM to 1.23 nM) for 2 hours before washing with DPBS and detaching with 0.25% Trypsin/EDTA. Cells were pelleted in 96-well conical bottom plates, washed once with FACS Buffer with BSA (Rockland Immunochemicals), and resuspended in FACS Buffer with BSA. Uptake of fluorescently labelled IgE was measured by analyzing median cellular AF647 intensity by flow cytometry.
(§3) Cells were incubated with equimolar ratio of conjugate and AF647 IgE at indicated concentrations, with data normalized to unconjugated parent protein (Oma S35HWY57H-LC).

recombinant IgE = experiment: Degradation of super-stoichiometric levels of target in HepG2 cells (Example 13, Table 31); conditions: 1 nM conjugate and 25 nM IgE for three days, (A-B)/C IgE depleted relative to conjugate, average of two replicate wells
Procedure: as §1
For evaluation of compounds in a high throughput format, 25,000 HepG2 cells were plated in a 96-well plate. The following day, 50 ul of 1 nM conjugate and 25 nM recombinant IgE in EMEM were added to the cells. 50 ul of the initial stock of conjugate:IgE was saved to quantify for an initial time point. Three days later, the media was collected from cells, and both initial and 72 hour time points were quantified for IgE concentration using the MSD assay.
HepG2 cells were incubated in media containing 1 nM conjugate and 25 nM IgE for three days. Concentrations of IgE at beginning and end of experiment were quantified by ELISA-based assay. Molar equivalents of IgE depleted relative to conjugate added are shown, calculated as (A-B)/C, where A is the initial concentration of IgE, B is the concentration of IgE at day three, and C is the concentration of conjugate. Reported values are the average of the values of two replicate wells.

[2] = system: LysoLight-labelled human IgE; experiment: Lysosomal degradation of LysoLight-labelled IgE in HepG2 cells, live cell imaging (Example 7); conditions: equimolar conjugate:LysoLight IgE, area under the curve of deep red fluorescence over three days, normalized to unconjugated parent protein
Procedure: as §1
HepG2 cells (15,000) were plated in 96-well plates 72 hours before performing the experiment. On the day of the experiment, indicated the conjugate was diluted in fresh EMEM and mixed with an equimolar stock of LysoLight-labelled human IgE (Enzo Life Sciences, BPD-DIA-HE1), at 200 nM of each compound. The precomplexed conjugate:IgE mixture was incubated at room temperature for 30 minutes. During the precomplexing step, media from HepG2 was removed, and 40 ul of EMEM with 1/100 Fc Receptor Blocking Solution (Biolegend Human TruStain FcX, 422302) was added. Cells incubated in the receptor blocking solution for 10 minutes while making serial dilutions (1:3) of conjugate:IgE stock solution in EMEM. 40 ul of the conjugate:IgE mixture in EMEM was then added to cells (five dilutions, with final concentrations ranging from 100 nM to 1.23 nM). Cells were placed in an IncuCyte Live-Cell Analysis System (Sartorius) for long term live cell imaging analysis (10× magnification, 3 images per well). One hour after addition of compound, image acquisition to measure red fluorescence from the LysoLight probe was started, with further Images collected every hour for 72 hours. Fluorescence of the LysoLight probe only occurs when cleaved by lysosomal cathepsin proteases, confirming lysosomal delivery and degradation of target. After 72 hours, mean red fluorescence was measured for each time point, and the area under the curve of fluorescence overtime was used to measure total degradation over the 3-day time period.

[3] = system: Alexa Fluor647 labelled human IgE; experiment: Uptake assay: internalization of Alexa Fluor 647 labelled IgE in ASGPR1/2 KO HepG2 cells (Example 6); conditions: equimolar conjugate and AF647 IgE, normalized to unconjugated parent protein
Procedure: as §1, §2, §3

human IgE = experiment: Degradation of initial and subsequent dose of target in HepG2 cells (Example 12, Table 30); conditions: normalized to unconjugated; for Normalized Fluorescence Post Wash Median Green: after wash, probe-conjugated IgE added for 4 hours, subsequent dose of target; for Normalized Fluorescence Precomplex Median Deep Red: precomplexed equimolar conjugate:IgE (cathepsin-cleavable quenched fluorescent probe) added for 2 hours, initial dose of target
Procedure: as §1
HepG2 cells (25,000) were plated in 96-well plates 48 hours before performing the experiment. On the day of the experiment, indicated conjugate was diluted in fresh EMEM as a 2× stock, and mixed with an equimolar stock of human IgE (Enzo Life Sciences, BPD-DIA-HE 1) conjugated to a cathepsin-cleavable quenched fluorescent probe. The precomplexed conjugate:IgE mixture was incubated at 37 degrees Celsius for 30 minutes. Media from HepG2 was removed, and conjugate:IgE mixture in EMEM was added to cells for 2 hours. Cells were then placed on ice to prevent trafficking/recycling during wash steps, and washed once with DPBS, once with sodium acetate buffer (20 mM, 150 mM NaCl, pH 5.2), once with Earle's Balanced Salt Solution (EBSS) adjusted to pH 2.5, and once again with DPBS, to remove conjugate from media and cell surface. Afterwards, 100 ul of prewarmed (to 37 degrees Celsius) EMEM with cathepsin-cleavable quenched fluorescent probe-conjugated IgE was added to cells for 4 hours before washing with DPBS and detaching with 0.25% Trypsin/EDTA. Cells were pelleted in 96-well conical bottom plates, washed once with FACS Buffer with BSA (Rockland Immunochemicals), resuspended FACS Buffer with BSA and median 488 and 647 intensity was analyzed by flow cytometry. Delivery of labelled IgE to the lysosome and subsequent cleavage of initial precomplexed IgE was measured by analyzing median cellular 647 intensity, while cleavage of the post wash addition of IgE, which should only be degraded by recycling conjugates which released the first round of precomplexed IgE, was analyzed by median cellular 488 intensity. HepG2 cells were treated with human IgE (Enzo Life Sciences, BPD-DIA-HE1) conjugated to a cathepsin-cleavable quenched deep red (647) fluorescent probe precomplexed to conjugate fortwo hours, then washed, and fresh media with IgE conjugated to a green (488) cathepsin-cleavable fluorescent probe was then added without conjugate. […] Fluorescence values were measured by FACS and normalized to unconjugated parent protein. Reported values are the average of the values of two replicate wells.

HepG2 cells = experiment: Externalization of conjugates from a cell following internalization (cycling), high-throughput format (Example 11); conditions: 50 nM conjugate 1 hour, stringent washes, Alexa Fluor 647-labelled a-human IgG 1 hour, FACS, normalized to unconjugated parent protein, average of two replicate wells
Procedure: as §1
The method was also adapted to a high-throughput format. In this assay, 25,000 HepG2 cells were plated in 96-well plates 48 hours before performing the experiment. The day of the experiment, cells were incubated with conjugate at indicated concentrations for 1 hour. Cells were then placed on ice to prevent trafficking/recycling during wash steps, and washed once with DPBS, once with sodium acetate buffer (20 mM, 150 mM NaCl, pH 5.2), once with Earle's Balanced Salt Solution (EBSS) adjusted to pH 2.5, and once again with DPBS, to remove conjugate from media and cell surface. Afterwards, 100 ul of prewarmed (to 37° C.) EMEM with 1 μg/ml of human a-IgG antibody conjugated to Alexa Fluor647 fluorophores was added to cells for 1 hour before washing with DPBS and detaching with 0.25% Trypsin/EDTA. Cells were pelleted in 96-well conical bottom plates, washed once with FACS Buffer with BSA (Rockland Immunochemicals), resuspended FACS Buffer with BSA and median AF647 intensity was analyzed by flow cytometry. The amount of conjugate capable of cycling to the cell surface (being externalized from the cell) and binding to the Alexa Fluor647 labelled α-IgG was measured by analyzing median cellular 647 fluorescence intensity by flow cytometry. […]. Reported values are the average of the values of two replicate wells.

| Compound | Normalized Fluorescence 3.7 nM WT [1] | Normalized Fluorescence 100 nM WT [1] | Average Degradation (Molar equivalents) (recombinant IgE) | Normalized Fluorescence 3.7 nM [2] | Normalized Fluorescence 100 nM [2] | Normalized Fluorescence 100 nM ASGPR KO [3] | Normalized Fluorescence Post Wash Median Green (human IgE) | Normalized Fluorescence Precomplex Median Deep Red (human IgE) | Normalized Fluorescence (HepG2 cells) |
| --- | --- | --- | --- | --- | --- | --- | --- | --- | --- |
| O=C(CCOCCOCCOCCNS(=O)(=O)c1ccc(N2C(=O)C=CC2=O)cc1)NC(CCCNC(=O)NCCOCCOCCOCc1cn([C@H]2[C@H]3OC[C@](CO)(O3)[C@H](O)[C@@H]2O)nn1)(CCCNC(=O)NCCOCCOCCOCc1cn([C@H]2[C@H]3OC[C@](CO)(O3)[C@H](O)[C@@H]2O)nn1)CCCNC(=O)NCCOCCOCCOCc1cn([C@H]2[C@H]3OC[C@](CO)(O3)[C@H](O)[C@@H]2O)nn1 [Compound 2328] | 29.7 | 146.5 | −0.3 | 4.4 | 2.5 | 1.1 | 1.8 | 2.4 | 15.1 |
| O=C(CCOCCOCCOCCNS(=O)(=O)c1ccc(N2C(=O)C=CC2=O)cc1)NC(CCCNC(=O)NCCOCCOCCOC[C@@H]1CN([C@H]2CO[C@H](CO)[C@H](O)[C@@H]2O)C(=O)O1)(CCCNC(=O)NCCOCCOCCOC[C@@H]1CN([C@H]2CO[C@H](CO)[C@H](O)[C@@H]2O)C(=O)O1)CCCNC(=O)NCCOCCOCCOC[C@@H]1CN([C@H]2CO[C@H](CO)[C@H](O)[C@@H]2O)C(=O)O1 [Compound 2306] | 31.0 | 164.6 | 1.8 | 5.6 | 1.8 | 1.1 | 2.4 | 2.5 | 23.1 |
| CC(=O)N[C@@H]1[C@@H](O)[C@@H](O)[C@@H](CO)O[C@@H]1CCCOCCOCCNC(=O)NCCCC(CCCNC(=O)NCCOCCOCCC[C@H]1O[C@H](CO)[C@H](O)[C@H](O)[C@H]1NC(C)=O)(CCCNC(=O)NCCOCCOCCC[C@H]1O[C@H](CO)[C@H](O)[C@H](O)[C@H]1NC(C)=O)NC(=O)CBr [Compound 2308] | 55.1 | 261.4 | 2.5 | 6.7 | 2.3 | 1.1 | 2.8 | 3.3 | 31.6 |
| CC(=O)N[C@@H]1[C@@H](O)[C@@H](O)[C@@H](CO)O[C@@H]1CCCOCCOCCNC(=O)NCCCC(CCCNC(=O)NCCOCCOCCC[C@H]1O[C@H](CO)[C@H](O)[C@H](O)[C@H]1NC(C)=O)(CCCNC(=O)NCCOCCOCCC[C@H]1O[C@H](CO)[C@H](O)[C@H](O)[C@H]1NC(C)=O)NC(=O)NCCOCCOCCOCCNC(=O)c1ccc(N2C(=O)C=CC2=O)cc1 [Compound 2314] | 69.0 | 265.7 | 6.5 | 13.9 | 3.9 | 1.0 | 3.5 | 3.6 | 40.5 |
| O=C(CCOCCOCCOCCNS(=O)(=O)c1ccc(N2C(=O)C=CC2=O)cc1)NC(CCCNC(=O)NCCOCCOCCOC[C@H]1CN([C@H]2CO[C@H](CO)[C@H](O)[C@@H]2O)C(=O)O1)(CCCNC(=O)NCCOCCOCCOC[C@H]1CN([C@H]2CO[C@H](CO)[C@H](O)[C@@H]2O)C(=O)O1)CCCNC(=O)NCCOCCOCCOC[C@H]1CN([C@H]2CO[C@H](CO)[C@H](O)[C@@H]2O)C(=O)O1 [Compound 2324] | 39.2 | 207.4 | 5.2 | 5.8 | 2.6 | 1.2 | 2.9 | 3.2 | 32.2 |
